Legend:
22Rv1 cells = assay: Cell survival: colony formation and apoptosis (caspase-3/7, TUNEL); format: cell-based, human
Experimental: (§1) Data shown are mean percentage of apoptotic cells±s.d. […] Data shown are mean±s.d. Significance was calculated using Student's t-test. *p<0.05, **p<0.01.
(§2) (a&b) C4-2B and 22Rv1 cell proliferation after the RORγ antagonist treatment. Cells were seeded in 6-well plates and counted after cells were treated with indicated concentrations of RORγ antagonists for 0, 2, 4 and 6 days by Coulter counter. […] (e) representative images of TUNEL positive cells treated with vehicle or the antagonist (5 μM) in 22Rv1 cells are shown. […] Three days later, cells were harvested for immunoblotting with indicated antibodies.
(§3) LNCaP, C4-2B, 22Rv, PC-3, and PC346C prostate cancer cells were cultured in RPMI1640, VCaP, HEK293T and human fibroblast IMR90 cells were in DMEM, LAPC-4 was in Iscove's MEM (all from Corning), and RWPE-1 and PZ-HPV-7 were in Keratinocyte Serum Free Medium (K-SFM) (Invitrogen) with the supplements. All the culture media except for RWPE-1 and PZ-HPV-7 were supplemented with 10% FBS (Hyclone) except indicated otherwise. For experiments, C4-2B cells were cultured in RPMI supplemented with 9% cds-FBS plus 1% regular FBS (to mimic the CRPC condition) unless indicated otherwise and 22Rv1 cells were cultured in RPMI supplemented with 10% cds-FBS. Cells were grown at 37° C. in 5% CO2 incubators. LNCaP, VCaP, 22Rv1, PC-3, 293T, IMR90, PZ-HPV-7 and RWPE-1 were from ATCC. […]

C4-2B cells = assay: as above; format: cell-based, human
Experimental: as §1, §2, §3

AR expression = assay: Immunoblotting of AR expression in 22Rv1, LAPC4 and PC346C cells; format: cell-based, human; settings: 22Rv1, LAPC4, PC346C cells, 72 hours
Experimental: Total RNA was isolated from cells in 6-well or 10-cm plates or from xenograft tumors, and the cDNA was prepared, amplified and measured in the presence of SYBR as described in Yang, P., et al., Molecular and cellular biology 32, 3121-3131 (2012). Briefly, the fluorescent values were collected and a melting curve analysis was performed. Fold difference was calculated as described previously Yang, P., et al. (see, id). The experiments were performed at least three times with data presented as mean values±s.d. Cell lysates were analyzed by immunoblotting with antibodies specifically recognizing RORγ, AR, AR-V7 and the indicated proteins.

C4-2B xenografts = assay: C4-2B xenograft tumor growth; format: in vivo, mouse; settings: 20 mg/kg, i.p., 5 times a week, 21-24 days
[1] = test system: TNBC cells including MDA-MB468, MDA-MB231, BT20, SUM149 and HCC1937; assay: Cell viability (CellTiter-GLO), 4 days, TNBC cells; format: cell-based; settings: Homo sapiens, 96 h
Experimental: (§4) For cell viability, cells were seeded in 96-well plates at 1500-2500 cells per well (optimum density for growth, depending on the specific cell line) in a total volume of 100 μl media. Serially diluted compounds in 100 μl of media were added to the cells 12 hours later. After 4 days of incubation, Cell-Titer GLO reagents (Promega) were added and luminescence was measured on GLOMAX microplate luminometer (Promega), according to the manufacturer's instructions. All experimental points were set up as sextuplicate as biological replication and the entire experiments were repeated three times. The data are presented as percentage of viable cells with vehicle treated cells set as 100. The estimated in vitro IC50 values were calculated using GraphPad Prism 6 software.

HCC1954 = assay: Cell viability (CellTiter-GLO), 4 days, HER2-positive cells; format: cell-based; settings: Homo sapiens, 96 h; HER2-positive HCC1954, 4 days
Experimental: as §4

MCF-7 = assay: Cell viability (CellTiter-GLO), 4 days, ER-positive cells; format: cell-based; settings: Homo sapiens, MCF7, 96 h; ER-positive MCF-7, 4 days
Experimental: as §4

T47D = assay: as above; format: cell-based; settings: Homo sapiens, 96 h
Experimental: as §4

[2] = test system: OVCAR420, T24, ECC1, T98G, SUDHL4, SUDHL6, HCT116 and docetaxel-resistant C4-2B cells; assay: Cell viability (CellTiter-GLO), 4 days, further cancer types; format: cell-based; settings: Homo sapiens, 96 h, ovarian, bladder, endometrial, glioblastoma, DLBCL, colon
HCC70 cells = assay: Cell viability (CellTiter-GLO), 4 days, TNBC cells; format: cell-based, human
Experimental: (§5) The “No.” label for each compound corresponds to the “Structure No.” in Table 2 (e.g., “No. 36”=“Structure No. 36” in Table 2). The cell viability curves were measured by CellTiter-GLO.
as §4, with “growth)” for “growth, depending on the specific cell line)”

MDA-MB468 cells = assay: Cell viability (CellTiter-GLO), 4 days, TNBC cells; format: cell-based, human
Experimental: as §5
as §4, with “growth)” for “growth, depending on the specific cell line)”

[3] = test system: SUM159 orthotopic xenograft tumors; assay: TNBC SUM159 orthotopic xenograft tumor growth in SCID mice; format: in vivo, mouse; settings: 5 mg/kg, i.p., 5 times per week, 45 days
Experimental: Orthotopic xenograft tumor models and chemical compound treatments: Four-week-old female SCID C.B17 mice (for TNBC SUM159 cell lines) were purchased from Harlan Inc. For establishing tumors, 2×10^6 cells were suspended in total of 100 μL PBS/Matrigel (1:1) and implanted orthotopically into the 4th inguinal mammary fat pads at both sides. Animal group size of six or more was estimated to have a high statistical power, based on power calculation (www.biomath.info/pgwer/) and 20 previous studies involving the same xenograft models. When the tumor volume was approximately 50 mm^3, the mice were randomized and then treated intraperitoneally (i.p.) with 100 μl of vehicle or RORγ inhibitors F18/No. 37, 5 mg/kg; GSK805, 5 mg/kg; GNE3500, 5 mg/kg. (in a formulation of 15% Cremophor EL, Calbiochem, 82.5% PBS, and 2.5% DMSO) for five times per week. Tumor growth was monitored by calipers with volume calculated using the equation: π/6 (length×width^2). Mouse body weight during the course of the study was also monitored. At the end of the studies, mice were killed and tumors were dissected and weighed.

O=C(Cc1ccccc1[N+](=O)[O-])Nc1ccc(-c2ccc(C(O)(C(F)(F)F)C(F)(F)F)cc2F)cc1 [XY018, N-(2′-fluoro-4′-(1,1,1,3,3,3-hexafluoro-2-hydroxypropan-2-yl)-[1,1′-biphenyl]-4-yl)-2-(2-nitrophenyl)acetamide]
inhibition of cell survival (colony formation, apoptosis) (22Rv1 cells): pronounced inhibition of cell survival | inhibition of cell survival (colony formation, apoptosis) (C4-2B cells): pronounced inhibition of cell survival | AR expression (AR expression): potent does dependent XY018 inhibition of AR expression | tumor growth inhibition (C4-2B xenografts): strong tumor growth inhibition | IC50 [1]: 0.5 to 3 µM | IC50 (HCC1954): 1.47 µM | IC50 (MCF-7): ~9 µM | IC50 (T47D): ~9 µM | IC50 [2]: < 3.5 µM | inhibition of growth and survival (HCC70 cells): strongly inhibited the growth and survival | inhibition of growth and survival (MDA-MB468 cells): strongly inhibited the growth and survival | orthotopic tumor growth inhibition [3]: effectively inhibited the orthotopic TNBC tumor growth

Reference: patent publication US20210161837A1, “METHODS FOR TREATING CANCER WITH RORGAMMA INHIBITORS” (The Regents of the University of California, priority 2016, published 2021)
